# In patent US6147095A (priority 1999, dated 2000):
# “Also recorded” adds a separate entry of the source. Read-outs that look alike come from different tables or passages of the source.
# What was measured:
# clinical [1] = conditions: human, in vivo, po, CLPO (oral clearance)
# Protocol: (§1) Baseline pharmacokinetic data for each drug were obtained under pharmacokinetic steady-state conditions following 7 days of dosing. Each drug was then co-administered for 10 days, at which time the pharmacokinetics of each was re-evaluated and compared with baseline data. […] All subjects were Caucasian. […] Pharmacokinetic analyses were based on results obtained in these subjects.
# Detection was by UV absorbance at 260 nm.
# (§2) Treatment effects on pharmacokinetic parameters were assessed using Wilcoxon's Signed Rank Test.
# [2] = human, in vivo
# Protocol: A pharmacokinetic profile was obtained under steady-state conditions following 7 days of dosing. […] Forty-four subjects were Caucasian, 2 were Black, and 2 were Asian.
# An aliquot (0.150 mL) was initially injected onto a short Zorbax® RX-C8 column which was connected via a column switching valve to the analytical column, Zorbax® RX-C8 column. The mobile phase was composed of acetonitrile:methanol:0.1% TFA in water, (40:35:25, v/v). Detection was by UV absorbance at 260 nm.
# (§3) Pharmacokinetic parameters such as AUC, Cmax, tmax, oral clearance, and terminal half-life, were determined using standard noncompartmental techniques.
# [3] = human, in vivo; remark: listed apart in the source
# Protocol: The drugs were then coadministered for 10 days, after which the pharmacokinetics of each were re-evaluated and compared with baseline data. The study was conducted in 14 healthy volunteers (13 males and 1 female) with a mean age of 29.9 years (range, 21.3-43.9 years), height of 174.4 cm (range, 162.6-185.4 cm), and weight of 76.5 kg (range, 65.1-88.2 kg). Twelve subjects were Caucasian and two were of African descent. Ten subjects completed all aspects of the study. Pharmacokinetic analyses were based on the results obtained in these subjects. […] Detection was by UV absorbance at 260 nm.
# CYP3A [4] = experiment: Enzyme induction; conditions: previous studies / in vitro and in vivo data
# HIV = conditions: reported for tipranavir; cited from earlier work
# [5] = Table 1; cited from earlier work
# [6] = Tipranavir drug-drug interaction potential (Table 1); conditions: with tipranavir
# [7] = cited from earlier work
# [8] = test system: cytochrome P450 3A (CYP3A); conditions: known property; cited from earlier work
# CYP3A [9] = conditions: cited from earlier work
# CYP3A [10] = conditions: delavirdine 200, 300, and 400 mg TID, HIV-1 infected patients, serial erythromycin breath tests; cited from earlier work
# [11] = human, in vivo; remark: listed apart in the source
# Protocol: as §1
# Plasma samples were assayed for delavirdine concentrations using a validated, sensitive and specific isocratic high performance liquid chromatographic (HPLC) method: one for the upper concentration range, and one for the lower concentration range. […] The supernatant was mixed with buffer and directly injected. Chromatographic separation was achieved using a Brownlee cyano guard column and an analytical column, DuPont Zorbax® SB CN.
# as §2
# CYP3A [12] = conditions: Table 1; cited from earlier work
# [13] = Example 4: pharmacokinetics of ritonavir oral solution with tipranavir SEDDS in healthy volunteers
# Protocol: (§4) A pharmacokinetic profile was obtained under steady-state conditions following 7 days of dosing.
# (§5) After elution from the SPE, a C-18AR analytical column was used to perform the chromatographic separation: the mobile phase was a gradient of methanol and 25 mM ammonium acetate. […] Retention times were approximately 1.5 minutes.
# as §3
# [14] = human, in vivo; remark: listed apart in the source
# Protocol: as §4, §5, §3
# clinical [15] = type: in vivo, human
# Text: The drugs were then coadministered for 10 days, after which the pharmacokinetics of each were re-evaluated and compared with baseline data. […] Twelve subjects were Caucasian and two were of African descent. Ten subjects completed all aspects of the study. Pharmacokinetic analyses were based on the results obtained in these subjects. […] Ritonavir and the internal standard (IS) were extracted from human plasma by liquid-liquid extraction with an ethyl acetate mixture.
# [16] = Study 2: pharmacokinetics of ritonavir co-administered with tipranavir in healthy volunteers; type: in vivo, human
# Protocol: Both groups received their assigned dose of tipranavir continuously throughout the study period. […] The pharmacokinetics of tipranavir when coadministered with ritonavir were evaluated and compared with baseline data, while the ritonavir data were compared to historical data. The study was conducted in 19 healthy volunteers (16 males and 3 females) with a mean age of 30 years (range, 19-52 years), height of 177.1 cm (range, 162.6-190.5 cm), and weight of 76.7 kg (range, 57.3-95.0 kg). Eighteen subjects were Caucasian […]. […] Pharmacokinetic analyses were based on those subjects completing the baseline evaluation and at least one period of concomitant drug administration. […] Ritonavir and the internal standard (IS) were extracted from human plasma by liquid-liquid extraction with an ethyl acetate mixture.
# [17] = 200 mg BID with tipranavir 1250 mg BID vs ritonavir 500 mg BID alone
smiles,measurement,setting,value
"CCC[C@@]1(CCc2ccccc2)CC(O)=C([C@H](CC)c2cccc(NS(=O)(=O)c3ccc(C(F)(F)F)cn3)c2)C(=O)O1 (relative stereo) [Tipranavir, [R-(R*,R*)]-N-[3-[1-[5,6-Dihydro-4-hydroxy-2-oxo-6-(2-phenylethyl)-6-propyl-2H-pyran-3-yl]propyl]phenyl]-5-(trifluoromethyl)-2-pyridinesulfonamide]",CL/F,clinical [1],468 mL/min
same,CLPO (oral clearance),[2],12.7 (6.1-23.7) L/h
same,effect on apparent terminal half-life,[2]; po,not significantly affected by ritonavir
same,effect on elimination half-life (t1/2),[3],not accompanied by a prolongation of the elimination half-life
same,enzyme induction by tipranavir,CYP3A [4],induces its own metabolism over a wide dosage range; also recorded: enzyme inducer
same,IC90,HIV,1 µM
Nc1ccn([C@@H]2CS[C@H](CO)O2)c(=O)n1 [3TC],Principal Route(s) of Elimination,[5],Excreted unchanged in urine
Cc1cn([C@H]2C[C@H](N=[N+]=[N-])[C@@H](CO)O2)c(=O)[nH]c1=O [AZT],Principal Route(s) of Elimination,[5],Conjugation/renal excretion
same,Potential for Clinically Significant Interaction,[6],Low
CC(C)CN(C[C@@H](O)[C@H](Cc1ccccc1)NC(=O)O[C@H]1CCOC1)S(=O)(=O)c1ccc(N)cc1 [Amprenavir],Principal Route(s) of Elimination,[5],CYP3A
same,Potential for Clinically Significant Interaction,[6],High (and unfavorable)
same,decrease of AUC by rifampin,"[7]; Table 1, protease inhibitors",~ 80%
CC(C)Nc1cccnc1N1CCN(C(=O)c2cc3cc(NS(C)(=O)=O)ccc3[nH]2)CC1 [Delavirdine],inhibition of CYP3A,[8],inhibits cytochrome P450 monooxygenase (CYP3A)
same,inhibition of CYP3A in vitro,CYP3A [9],non-competitively inhibit CYP3A
same,inhibition of CYP3A in vivo,CYP3A [10],rapid and significant inhibition of CYP3A
same,CLPO (oral clearance),[11],5.18 (1.5-7.8) L/h
same,delavirdine clearance with rifabutin or rifampin,[7]; coadministration of either rifabutin or rifampin,marked increase in delavirdine clearance
O=C1Nc2ccc(Cl)cc2[C@@](C#CC2CC2)(C(F)(F)F)O1 [Efavirenz],CYP3A induction,CYP3A [12],possible CYP3A inducer
CC(C)(C)NC(=O)[C@@H]1CN(Cc2cccnc2)CCN1C[C@@H](O)C[C@@H](Cc1ccccc1)C(=O)N[C@H]1c2ccccc2C[C@H]1O [Indinavir],decrease of AUC by rifampin,"[7]; Table 1, protease inhibitors",~ 80%
Cc1c(O)cccc1C(=O)N[C@@H](CSc1ccccc1)[C@H](O)CN1C[C@H]2CCCC[C@H]2C[C@H]1C(=O)NC(C)(C)C [Nelfinavir],decrease of AUC by rifampin,"[7]; human, in vivo",~ 80%
Cc1ccnc2c1NC(=O)c1cccnc1N2C1CC1 [Nevirapine],decrease of nevirapine concentrations by rifampin,[7]; in vivo,~ 40%
"CC(C)c1nc(CN(C)C(=O)N[C@H](C(=O)N[C@@H](Cc2ccccc2)C[C@H](O)[C@H](Cc2ccccc2)NC(=O)OCc2cncs2)C(C)C)cs1 [Ritonavir, (2S,3S,5S)-5(N-(N-((N-Methyl-N-((2-isopropyl-4-thiazoly)methyl)amino)carbonyl)-L-valinyl)amino)-2-(N-((5-thiazoly)methoxycarbonyl)amino)-1,6-diphenyl-3-hydroxhexane]",decrease of median ritonavir AUC,[13]; [17],12 -fold
same,decrease of median ritonavir Cmax,[13]; [17],10 -fold
same,decrease of median ritonavir Cmin,[13]; [17],54 -fold
same,ritonavir concentrations in the presence of tipranavir,[13]; presence of tipranavir,greatly decreased
same,effect on apparent elimination half-life,[14],decreased relative to ritonavir given alone
same,effect on apparent half-life of elimination,"clinical [15]; human, in vivo",shorter apparent half-life of elimination
same,CL/F,"clinical [15]; human, in vivo, po",85 mL/min
same,CLPO (oral clearance),"clinical [15]; human, in vivo, po",5.1 (3.9-7.8) L/h
same,Tmax,"clinical [15]; human, in vivo, po",3.0 (1.0-4.0) h
same,half-life,"clinical [15]; human, plasma, po, 500 mg",2.9 h
same,plasma ritonavir concentrations vs reported values,clinical [15]; ritonavir 500 mg BID alone,slightly higher than those reported in HIV-infected patients receiving ritonavir 600 mg doses twice daily
same,plasma ritonavir concentrations vs published values,clinical [15]; ritonavir 500 mg BID with tipranavir,lower than published values for ritonavir 300 mg doses administered twice daily to HIV-infected patients
same,decrease in mean steady-state ritonavir concentrations,clinical [15]; ritonavir 500 mg BID with tipranavir 1350 mg BID vs alone,~5 -fold
same,effect of tipranavir on blood levels of ritonavir,[16]; Examples 1 and 2,lower blood levels of ritonavir
same,ritonavir concentrations,[16]; co-administration of lowest tipranavir dose tested (600 mg BID),significantly and substantially declined
same,effect on elimination half-life,"[16]; human, in vivo",shortening of the elimination hall-life
same,decrease in steady-state plasma ritonavir concentrations,[16]; ritonavir 500 mg BID with tipranavir 600 or 900 mg BID vs ritonavir alone,~4 -fold
CC(C)(C)NC(=O)[C@@H]1C[C@@H]2CCCC[C@@H]2CN1C[C@@H](O)[C@H](Cc1ccccc1)NC(=O)[C@H](CC(N)=O)NC(=O)c1ccc2ccccc2n1 [Saquinavir],Potential for Clinically Significant Interaction,[6],High (and unfavorable)
same,decrease of AUC by rifampin,"[7]; human, in vivo",~ 80%
O=c1[nH]cnc2c1ncn2[C@H]1CC[C@@H](CO)O1 [ddI],Principal Route(s) of Elimination,[5],Tubular secretion
same,Potential for Clinically Significant Interaction,[6],Low
